Measured values taken from patent publication US8563746B2, “Cyclic benzimidazole derivatives useful as anti-diabetic agents” (Merck Sharp & Dohme Corp, priority 2008, dated 2013).

target: recombinant human AMPK complex 1 (containing α1β1γ1) (Homo sapiens, UniProt Q13131+Q9Y478); assay: In vitro AMPK activation assay ([…]); assay type: biochemical; conditions: recombinant human AMPK complex 1 (α1β1γ1); basal activity subtracted, expressed as % maximum AMP activation
Description: The recombinant human AMPK complex 1 (containing α1β1γ1) was obtained from baculovirus expression system. Recombinant viruses were generated by cotransfection of AMPK/pBacPak9 clones with Baculogold baculovirus DNA (Pharmingen) in spodoptera frugiperda 21 cells according to the manufacturer's instructions. Each round of virus amplification was performed for 5 days in Grace's medium containing 10% serum. Virus that had been subjected to three rounds of amplification was used for all protein production procedures. To express the AMPK complex, sf21 cells were adapted to serum free medium (SF900 II, Invitrogen) by sequential dilution from serum containing stocks into SF900II medium and maintained in shaker flasks at 90 rpm at 27° C. The recombinant AMPK enzyme complex was produced by triple infection, one recombinant virus for each of the subunits, in sf21 cells under serum free conditions. Cells were infected in log phase, 1×10^6 cells/ml, at a multiplicity of infection of ˜5. Cells were harvested by centrifugation at 10,000×g for 15 minutes after 72 hours of infection with viruses. The insect cell pellet from 2 liters of culture was resuspended in 50 ml lysis buffer (20 mM Tris-HCl, 50 mM NaCl, 50 mM NaF, 30 mM Na PPi, 0.25 M sucrose, 10 mM ZnCl2, 2 mM DTT, 0.4 mg/ml digitonin) and subjected to two cycles of freeze-thaw lysis in a dry-ice ethanol bath. Insoluble material was removed by centrifugation at 10,000×g and the supernatant was fractionated with use of polyethylene glycol (PEG). The protein fraction precipitating between 2.5 and 6% PEG was used for further purification using a Blue-Sepharose step (Zhou et al, J. Clin. Invest. 108, 1167-1174, 2001).
The total in vitro AMPK activation assay volume is 50 μl in a 96-well plate. The reaction mixture contained 100 μM ATP (0.5 μCi ^33P-ATP per reaction), and 50 μM SAMS ([…]) in a buffer (20 mM HEPES, pH 7.0, 5 mM MgCl2, 0.01% Brij35). The reaction was initiated with addition of the enzyme. After 30-minute incubation at 30° C., the reaction was stopped by addition of 80 μl 1% H3PO4. Aliquots (100 μl) were transferred to 96-well MultiScreen plates (MAPHNOB50; Millipore Corp., Bedford, Mass., USA). The plate was washed three times with 1% H3PO4 followed by detection in a Top-count. The counts per minute from the basal activity (the reaction without activator) was subtracted from each well and the data were expressed as % maximum AMP activation followed by EC50 calculation.

recombinant human AMPK complex 1 (containing α1β1γ1), sequence (Q13131 whole entry): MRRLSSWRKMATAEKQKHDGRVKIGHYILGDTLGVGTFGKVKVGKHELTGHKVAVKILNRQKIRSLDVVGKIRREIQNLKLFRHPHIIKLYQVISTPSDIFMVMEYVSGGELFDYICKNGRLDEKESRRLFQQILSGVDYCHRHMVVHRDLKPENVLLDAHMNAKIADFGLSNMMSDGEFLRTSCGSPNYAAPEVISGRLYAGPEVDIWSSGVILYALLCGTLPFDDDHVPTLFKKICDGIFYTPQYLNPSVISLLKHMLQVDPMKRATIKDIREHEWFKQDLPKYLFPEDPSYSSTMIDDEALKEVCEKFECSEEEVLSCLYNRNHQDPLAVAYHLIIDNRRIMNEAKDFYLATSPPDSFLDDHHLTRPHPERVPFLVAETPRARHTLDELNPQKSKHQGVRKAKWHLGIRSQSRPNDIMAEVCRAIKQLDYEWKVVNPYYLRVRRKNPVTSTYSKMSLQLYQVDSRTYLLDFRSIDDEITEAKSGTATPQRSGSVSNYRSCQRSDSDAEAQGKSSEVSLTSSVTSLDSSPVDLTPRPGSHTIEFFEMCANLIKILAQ
recombinant human AMPK complex 1 (containing α1β1γ1), sequence (Q9Y478 whole entry): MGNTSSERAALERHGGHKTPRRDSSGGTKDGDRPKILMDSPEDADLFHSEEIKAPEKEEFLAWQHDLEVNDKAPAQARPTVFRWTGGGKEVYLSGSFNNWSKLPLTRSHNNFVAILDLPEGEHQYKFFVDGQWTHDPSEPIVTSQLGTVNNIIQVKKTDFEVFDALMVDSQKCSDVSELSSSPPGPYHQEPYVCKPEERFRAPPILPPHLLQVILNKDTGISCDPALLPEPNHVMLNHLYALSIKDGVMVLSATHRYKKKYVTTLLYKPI
recombinant human AMPK complex 1 (containing α1β1γ1), sequence (P54619 whole entry partner): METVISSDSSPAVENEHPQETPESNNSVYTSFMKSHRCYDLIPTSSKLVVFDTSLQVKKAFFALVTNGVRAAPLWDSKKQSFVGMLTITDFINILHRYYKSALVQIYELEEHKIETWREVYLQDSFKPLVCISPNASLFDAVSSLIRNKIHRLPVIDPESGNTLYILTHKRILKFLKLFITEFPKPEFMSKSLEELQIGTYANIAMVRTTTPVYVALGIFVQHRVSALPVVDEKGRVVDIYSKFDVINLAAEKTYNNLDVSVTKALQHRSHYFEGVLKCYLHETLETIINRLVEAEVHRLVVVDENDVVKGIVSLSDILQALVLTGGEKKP

Row | SMILES | Emax
1 | O=C(O)CSc1nc2cc(C#Cc3cccs3)c(Cl)cc2[nH]1 [Example 38, (6-chloro-5-thiophen-2-yl-ethynyl-1H-benzo-imidazol-2-yl-sulfanyl)-acetic acid] | > 40%
2 | COc1ccc(C#Cc2cc3nc(SCC(=O)O)[nH]c3cc2Cl)cc1 [Example 39, [6-chloro-5-(4-methoxy-phenyl-ethynyl)-1H-benzimidazol-2-ylsulfanyl]-acetic acid] | > 40%
3 | O=C(O)CSc1nc2cc(-c3ccc(OCc4ccccc4)c(F)c3)c(Cl)cc2[nH]1 [Example 40, [5-(4-Benzyloxy-3-fluoro-phenyl)-6-chloro-1H-benzimidazol-2-ylsulfanyl]-acetic acid] | > 40%
4 | O=C(O)CSc1nc2cc(-c3ccc(Cl)cc3)c(Cl)cc2[nH]1 [Example 41, [6-chloro-5-(4-chloro-phenyl)-1H-benzimidazol-2-ylsulfanyl]-acetic acid] | > 40%
5 | COc1ccc(-c2cc3nc(SCC(=O)O)[nH]c3cc2Cl)cc1 [Example 42, [6-chloro-5-(4-methoxy-phenyl)-1H-benzimidazol-2-ylsulfanyl]-acetic acid] | > 40%
6 | CC(C)Cc1ccc(-c2cc3nc(SCC(=O)O)[nH]c3cc2Cl)cc1 [Example 43, [6-chloro-5-(4-isobutyl-phenyl)-1H-benzimidazol-2-ylsulfanyl]-acetic acid] | > 40%
7 | O=C(O)CSc1nc2cc(-c3ccc(OCc4ccccc4)cc3)c(Cl)cc2[nH]1 [Example 44, [5-(4-benzyl-oxy-phenyl)-6-chloro-1H-benzimidazol-2-ylsulfanyl]-acetic acid] | > 40%
8 | CC(C)(COc1nc2cc(C#Cc3ccccc3)c(Cl)cc2[nH]1)C(=O)O [Example 49, 3-(6-Chloro-5-phenylethynyl-1H-benzoimidazol-2-yloxy)-2,2-dimethyl-propionic acid] | > 40%
9 | O=C(O)CCc1nc2cc(-c3ccccc3)c(Cl)cc2[nH]1 [Example 50, 3-(6-Chloro-5-phenyl-1H-benzimidazol-2-yl)-propionic acid] | > 40%
10 | O=C(O)CCc1nc2cc(-c3ccc(-c4ccccc4)cc3)c(Cl)cc2[nH]1 [Example 51, 3-(5-Biphenyl-4-yl-6-chloro-1H-benzimidazol-2-yl)-propionic acid] | > 40%
11 | O=C(O)CSc1nc2cc(C#Cc3cccnc3)c(Cl)cc2[nH]1 [Example 56] | > 40%
12 | O=C(O)CSc1nc2cc(C#Cc3ccccn3)c(Cl)cc2[nH]1 [Example 57] | > 40%
13 | O=C(O)CSc1nc2cc(-c3ccc(-c4ccccc4)s3)c(Cl)cc2[nH]1 [Example 58] | > 40%
14 | O=C(O)CSc1nc2cc(-c3ccc(N4CCCCC4)cc3)c(Cl)cc2[nH]1 [Example 60] | > 40%
15 | O=C(O)CSc1nc2cc(-c3ccc(N4CCOCC4)cc3)c(Cl)cc2[nH]1 [Example 61] | > 40%
16 | O=C(O)CSc1nc2cc(-c3ccc(N4CCOCC4)nc3)c(Cl)cc2[nH]1 [Example 62] | > 40%
17 | O=C(O)CSc1nc2cc(-c3cc4ccccc4s3)c(Cl)cc2[nH]1 [Example 63] | > 40%
18 | O=C(O)CSc1nc2cc(C#Cc3ccc(C(F)(F)F)cc3)c(Cl)cc2[nH]1 [Example 65] | > 40%
19 | O=C(O)CSc1nc2cc(C#Cc3ccc(Cl)cc3)c(Cl)cc2[nH]1 [Example 67] | > 40%

Row | SMILES | Emax
20 | O=C(O)CSc1nc2cc(C#Cc3ccc(Br)cc3)c(Cl)cc2[nH]1 [Example 68] | > 40%
21 | O=C(O)CSc1nc2cc(C#Cc3cc(F)cc(F)c3)c(Cl)cc2[nH]1 [Example 69] | > 40%
22 | O=C(O)CSc1nc2cc(C#Cc3ccccc3[N+](=O)[O-])c(Cl)cc2[nH]1 [Example 70] | > 40%
23 | O=C(O)CSc1nc2cc(-c3cccc(N4CCOCC4)n3)c(Cl)cc2[nH]1 [Example 71] | > 40%
24 | O=C(O)CSc1nc2cc(-c3csc(-c4ccccc4)n3)c(Cl)cc2[nH]1 [Example 72] | > 40%
25 | O=C(O)CSc1nc2cc(-c3ccc(-c4cnccn4)cc3)c(Cl)cc2[nH]1 [Example 73] | > 40%
26 | CCc1ccc(C(=O)Cc2cc3nc(SCC(=O)O)[nH]c3cc2Cl)cc1 [Example 74] | > 40%
27 | O=C(O)CSc1nc2cc(C#Cc3ccc(C(=O)O)cc3)c(Cl)cc2[nH]1 [Example 75] | > 40%
28 | CC(=O)Nc1ccc(C#Cc2cc3nc(SCC(=O)O)[nH]c3cc2Cl)cc1 [Example 76] | > 40%
29 | CS(=O)(=O)Nc1ccc(C#Cc2cc3nc(SCC(=O)O)[nH]c3cc2Cl)cc1 [Example 77] | > 40%
30 | CCNC(=O)Nc1ccc(C#Cc2cc3nc(SCC(=O)O)[nH]c3cc2Cl)cc1 [Example 78] | > 40%
31 | O=C(O)CSc1nc2cc(-c3ccc(Br)cc3)c(Cl)cc2[nH]1 [Example 79] | > 40%
32 | O=C(O)CSc1nc2cc(-c3ccc(C(F)(F)F)cc3)c(Cl)cc2[nH]1 [Example 81] | > 40%
33 | CN(C)C(=O)c1ccc(C#Cc2cc3nc(SCC(=O)O)[nH]c3cc2Cl)cc1 [Example 82] | > 40%
34 | CNC(=O)c1ccc(C#Cc2cc3nc(SCC(=O)O)[nH]c3cc2Cl)cc1 [Example 83] | > 40%
35 | CSc1ccc(-c2cc3nc(SCC(=O)O)[nH]c3cc2Cl)cc1 [Example 84] | > 40%
36 | Cc1cc(-c2cc3nc(SCC(=O)O)[nH]c3cc2Cl)ccc1Cl [Example 85] | > 40%
37 | C[S+]([O-])c1ccc(-c2cc3nc(SCC(=O)O)[nH]c3cc2Cl)cc1 (centres unmarked) [Example 86] | > 40%

same assay, conditions: recombinant human AMPK complex 1 (α1β1γ1); read-out: EC50

Row | SMILES | EC50
38 | O=C(O)COc1nc2cc(-c3ccc(-c4ccn[nH]4)cc3)c(Cl)cc2[nH]1 [Example 45, {6-Chloro-5-[4-(2H-pyrazol-3-yl)-phenyl]-1H-benzoimidazol-2-yloxy}-acetic acid] | 160 nM
39 | O=C(O)COc1nc2cc(-c3ccc(-c4ccccc4)cc3)c(Cl)cc2[nH]1 [Example 46, [(5-biphenyl-4-yl-6-chloro-1H-benzimidazol-2-yl)oxy]ylacetic acid] | 128 nM
40 | O=C(O)COc1nc2cc(C#Cc3ccc(CO)cc3)c(Cl)cc2[nH]1 [Example 47] | 97 nM
41 | O=C(O)COc1nc2cc(C#Cc3ccccc3)c(Cl)cc2[nH]1 [Example 48, (6-Chloro-5-phenylethynyl-1H-benzoimidazol-2-yloxy)-acetic acid] | 130 nM
42 | Cn1ccc2cc(-c3cc4nc(SCC(=O)O)[nH]c4cc3Cl)ccc21 [Example 59] | 100 nM
43 | O=C(O)CSc1nc2cc(-c3ccc4[nH]ccc4c3)c(Cl)cc2[nH]1 [Example 66] | 282 nM

system: ob/ob and db/db mice; assay: not given; conditions: following 8 weeks of administration; cited from earlier work

Row | SMILES | blood glucose reduction
44 | NC(=O)c1ncn([C@@H]2O[C@H](CO)[C@@H](O)[C@H]2O)c1N [AICAR] | 35%
